# Source: patent publication US8586591B2, “Aminopyrazine derivative and medicine” (Nippon Shinyaku Co., Ltd., priority 2009, dated 2013)
# Counter-ions that a name gives are not always drawn.
# Tests used:
# JAK3 tyrosine kinase = target: T1, JAK3 tyrosine kinase (Homo sapiens, UniProt P52333); assay: Test 1: inhibitory activity to JAK3 tyrosine kinase (ELISA); type: biochemical; conditions: 25 μM ATP in substrate solution, 30° C. for 1 hour, n=2
# T1 construct: purchased Carnabioscience Co
# T1 sequence (P52333 1-1124): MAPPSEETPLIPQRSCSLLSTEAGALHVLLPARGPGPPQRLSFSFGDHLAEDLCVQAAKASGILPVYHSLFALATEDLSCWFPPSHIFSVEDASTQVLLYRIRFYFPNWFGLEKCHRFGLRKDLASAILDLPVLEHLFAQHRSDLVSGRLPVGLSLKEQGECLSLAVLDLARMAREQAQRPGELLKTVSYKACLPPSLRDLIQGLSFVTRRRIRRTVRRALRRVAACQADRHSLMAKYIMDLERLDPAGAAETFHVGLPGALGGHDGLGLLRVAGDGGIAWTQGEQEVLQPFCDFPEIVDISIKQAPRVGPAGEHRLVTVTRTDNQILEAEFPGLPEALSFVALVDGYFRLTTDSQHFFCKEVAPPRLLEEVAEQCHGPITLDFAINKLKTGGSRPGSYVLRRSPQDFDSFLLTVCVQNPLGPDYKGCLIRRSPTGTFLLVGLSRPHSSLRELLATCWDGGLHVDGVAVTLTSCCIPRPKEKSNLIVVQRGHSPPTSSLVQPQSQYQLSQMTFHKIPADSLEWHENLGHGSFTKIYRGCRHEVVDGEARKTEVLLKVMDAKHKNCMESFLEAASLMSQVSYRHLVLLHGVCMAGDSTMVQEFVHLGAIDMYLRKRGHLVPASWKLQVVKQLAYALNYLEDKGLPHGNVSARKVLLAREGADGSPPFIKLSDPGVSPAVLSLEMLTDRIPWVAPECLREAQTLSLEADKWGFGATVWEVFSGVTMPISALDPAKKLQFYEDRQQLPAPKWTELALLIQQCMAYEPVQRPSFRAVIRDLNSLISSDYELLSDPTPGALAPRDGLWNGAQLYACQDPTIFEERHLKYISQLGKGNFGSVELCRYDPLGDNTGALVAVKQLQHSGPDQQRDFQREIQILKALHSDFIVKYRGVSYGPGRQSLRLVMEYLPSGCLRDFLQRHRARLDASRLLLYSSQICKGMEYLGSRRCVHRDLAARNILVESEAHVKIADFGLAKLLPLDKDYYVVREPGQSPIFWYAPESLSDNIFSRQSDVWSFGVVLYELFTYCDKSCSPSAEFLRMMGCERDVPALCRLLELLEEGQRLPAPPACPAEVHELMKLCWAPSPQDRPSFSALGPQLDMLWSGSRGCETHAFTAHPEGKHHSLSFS
# Summary of the method: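 ELISA of JAK3 kinase activity with absorbance read at 450 nm. Compounds were tested from DMSO dilution series at 100-fold the measurement concentrations (1000–0.01 μM), diluted up to 20 times in assay buffer, against a DMSO negative control. IC50 was estimated by non-linear regression of absorbance.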
# JAK2 tyrosine kinase = target: T2, JAK2 tyrosine kinase (Homo sapiens, UniProt O60674); assay: Test 1: inhibitory activity to JAK2 tyrosine kinase (ELISA); type: biochemical; conditions: 25 μM ATP in substrate solution, 30° C. for 1 hour, n=2
# T2 construct: purchased Carnabioscience Co
# Summary of the method: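 This is an ELISA read at A450 (HRP anti-phosphotyrosine antibody, TMB) of biotin-peptide phosphorylation captured on streptavidin. Enzyme solution was 0.75 nM JAK2, and the substrate solution was 625 nM peptide with 25 μM ATP in Tris pH 7.5 buffer. The reaction ran 1 h at 30 °C with compounds in duplicate, and IC50 was fitted non-linearly.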
# T2 sequence (O60674 whole entry): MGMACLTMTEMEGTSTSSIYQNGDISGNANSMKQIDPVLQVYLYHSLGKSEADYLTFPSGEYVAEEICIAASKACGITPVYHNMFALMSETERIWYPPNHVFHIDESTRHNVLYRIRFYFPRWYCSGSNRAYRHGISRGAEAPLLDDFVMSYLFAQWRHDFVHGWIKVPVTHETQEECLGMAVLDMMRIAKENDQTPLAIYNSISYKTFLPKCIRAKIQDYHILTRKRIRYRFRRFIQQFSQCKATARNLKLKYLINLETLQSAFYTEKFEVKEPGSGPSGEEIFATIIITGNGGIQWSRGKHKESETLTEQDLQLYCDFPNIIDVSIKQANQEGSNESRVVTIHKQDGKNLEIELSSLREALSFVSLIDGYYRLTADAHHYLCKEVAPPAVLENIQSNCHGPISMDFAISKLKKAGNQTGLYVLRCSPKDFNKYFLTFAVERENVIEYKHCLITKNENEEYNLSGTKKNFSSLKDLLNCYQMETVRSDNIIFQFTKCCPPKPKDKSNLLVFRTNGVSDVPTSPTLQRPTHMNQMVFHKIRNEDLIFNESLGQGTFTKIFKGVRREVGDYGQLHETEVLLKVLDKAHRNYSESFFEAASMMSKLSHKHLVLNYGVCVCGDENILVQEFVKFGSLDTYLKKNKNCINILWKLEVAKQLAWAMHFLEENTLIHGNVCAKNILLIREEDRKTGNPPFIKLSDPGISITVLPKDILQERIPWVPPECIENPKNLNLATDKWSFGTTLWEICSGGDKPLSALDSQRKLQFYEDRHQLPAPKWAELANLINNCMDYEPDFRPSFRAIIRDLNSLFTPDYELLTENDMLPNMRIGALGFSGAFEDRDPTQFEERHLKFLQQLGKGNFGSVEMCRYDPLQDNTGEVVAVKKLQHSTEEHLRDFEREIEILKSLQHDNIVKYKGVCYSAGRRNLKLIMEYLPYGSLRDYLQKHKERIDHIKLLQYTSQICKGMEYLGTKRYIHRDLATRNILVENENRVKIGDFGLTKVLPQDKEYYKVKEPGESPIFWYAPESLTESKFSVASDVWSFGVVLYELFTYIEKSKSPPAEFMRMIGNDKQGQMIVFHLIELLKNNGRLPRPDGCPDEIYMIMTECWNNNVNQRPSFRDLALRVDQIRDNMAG
IC50 (JAK3 tyrosine kinase) [nM],IC50 (JAK2 tyrosine kinase) [nM],Structure (SMILES)
31,0.96,"C[C@H](Nc1nc(Nc2cnccn2)cc(N2CC(O)C2)n1)c1ccc(F)cc1 [Example 72, (S)-1-{2-[1-(4-Fluorophenyl)ethylamino]-6-(pyrazin-2-ylamino)pyrimidin-4-yl}azetidin-3-ol hydrochloride]"
48,1.3,"C[C@H](Nc1nc(Nc2cnccn2)cc(N2CCCC(O)C2)n1)c1ccc(F)cc1 (stereo partly drawn) [Example 73, 1-{2-[(S)-1-(4-Fluorophenyl)ethylamino]-6-(pyrazin-2-ylamino)pyrimidin-4-yl}piperidin-3-ol hydrochloride]"
230,3.8,"C[C@H](Nc1nc(Nc2cnccn2)cc(-c2cncc(C#N)c2)n1)c1ccc(F)cc1 [Example 74, (S)-5-{2-[1-(4-Fluorophenyl)ethylamino]-6-(pyrazin-2-ylamino)pyrimidin-4-yl}nicotinonitrile]"
630,12,"C[C@H](Nc1nc(Nc2cnccn2)cc(-c2nn[nH]n2)n1)c1ccc(F)cc1 [Example 75, (S)—N^2-[1-(4-Fluorophenyl)ethyl]-N^4-(pyrazin-2-yl)-6-(2H-tetrazol-5-yl)pyrimidine-2,4-diamine]"
57,2.5,"C[C@H](Nc1nc(NCCN)cc(Nc2cnccn2)n1)c1ccc(F)cc1 [Example 76, (S)—N^4-(2-Aminoethyl)-N^2-[1-(4-fluorophenyl)ethyl]-N^6-(pyrazin-2-yl)pyrimidine-2,4,6-triamine dihydrochloride]"
37,0.73,"C[C@H](Nc1nc(NCCNS(C)(=O)=O)cc(Nc2cnccn2)n1)c1ccc(F)cc1 [Example 77, (S)—N-(2-{2-[1-(4-Fluorophenyl)ethylamino]-6-(pyrazin-2-ylamino)pyrimidin-4-ylamino}ethyl)methanesulfonamide hydrochloride]"
35,1.4,"CC(=O)NCCNc1cc(Nc2cnccn2)nc(N[C@@H](C)c2ccc(F)cc2)n1 [Example 78, (S)—N-(2-{2-[1-(4-Fluorophenyl)ethylamino]-6-(pyrazin-2-ylamino)pyrimidin-4-ylamino}ethyl) acetamide hydrochloride]"
140,4.3,"C[C@H](Nc1nc(NCC(N)=O)cc(Nc2cnccn2)n1)c1ccc(F)cc1 [Example 79, (S)-2-{2-[1-(4-Fluorophenyl)ethylamino]-6-(pyrazin-2-ylamino)pyrimidin-4-ylamino}acetamide hydrochloride]"
60,1.1,"C[C@H](Nc1nc(Nc2cnccn2)cc(-c2ccc(C(N)=O)cc2)n1)c1ccc(F)cc1 [Example 80, (S)-4-{2-[1-(4-Fluorophenyl)ethylamino]-6-(pyrazin-2-ylamino)pyrimidin-4-yl}benzamide hydrochloride]"
480,5.6,"C[C@H](Nc1nc(Nc2cnccn2)cc(-c2cccc(C#N)c2)n1)c1ccc(F)cc1 [Example 81, (S)-3-{2-[1-(4-Fluorophenyl)ethylamino]-6-(pyrazin-2-ylamino)pyrimidin-4-yl}benzonitrile]"
99,1.7,"C[C@H](Nc1nc(Nc2cnccn2)cc(-c2ccoc2)n1)c1ccc(F)cc1 [Example 82, (S)—N^2-[1-(4-Fluorophenyl)ethyl]-6-(furan-3-yl)-N^4-(pyrazin-2-yl)pyrimidine-2,4-diamine hydrochloride]"
58,3.7,"CCOC(=O)C1CCN(c2cc(Nc3cnccn3)nc(N[C@@H](C)c3ccc(F)cc3)n2)CC1 [Example 83, Ethyl (S)-1-{2-[1-(4-fluorophenyl)ethylamino]-6-(pyrazin-2-ylamino)pyrimidin-4-yl}piperidin-4-carboxylate]"
170,2,"C[C@H](Nc1nc(Nc2cnccn2)cc(-c2cncc(C(N)=O)c2)n1)c1ccc(F)cc1 [Example 84, (S)-5-{2-[1-(4-Fluorophenyl)ethylamino]-6-(pyrazin-2-ylamino)pyrimidin-4-yl}nicotinamide]"
20,0.51,"C[C@H](Nc1nc(Nc2cnccn2)cc(N2CCC(C(=O)O)CC2)n1)c1ccc(F)cc1 [Example 85, (S)-1-{2-[1-(4-Fluorophenyl)ethylamino]-6-(pyrazin-2-ylamino)pyrimidin-4-yl}piperidine-4-carboxylic acid]"
87,2.4,"C[C@H](Nc1nc(Nc2cnccn2)cc(N[C@H](CO)c2ccccc2)n1)c1ccc(F)cc1 [Example 86, (S)-2-{2-[(S)-1-(4-Fluorophenyl)ethylamino]-6-(pyrazin-2-ylamino)pyrimidin-4-ylamino}-2-phenylethanol]"
450,14,"C[C@H](Nc1nc(Nc2cnccn2)cc(N[C@H](CO)Cc2ccccc2)n1)c1ccc(F)cc1 [Example 87, (S)-2-{2-[(S)-1-(4-Fluorophenyl)ethylamino]-6-(pyrazin-2-ylamino)pyrimidin-4-ylamino}-3-phenylpropan-1-ol]"
200,13,"CC(C)C[C@H](CO)Nc1cc(Nc2cnccn2)nc(N[C@@H](C)c2ccc(F)cc2)n1 [Example 88, (R)-2-{2-[(S)-1-(4-Fluorophenyl)ethylamino]-6-(pyrazin-2-ylamino)pyrimidin-4-ylamino}-4-methylpentan-1-ol]"
150,3.8,"C[C@H](Nc1nc(Nc2cnccn2)cc(OCCN(C)C)n1)c1ccc(F)cc1 [Example 89, (S)-6-[2-(Dimethylamino)ethoxy]-N^2-[1-(4-fluorophenyl)ethyl]-N^4-(pyrazin-2-yl)pyrimidine-2,4-diamine dihydrochloride]"
380,6.1,"C[C@H](Nc1nc(Nc2cnccn2)cc(-n2cc(C(=O)O)cn2)n1)c1ccc(F)cc1 [Example 90, (S)-1-{2-[1-(4-Fluorophenyl)ethylamino]-6-(pyrazin-2-ylamino)pyrimidin-4-yl}-1H-pyrazole-4-carboxylic acid]"
97,1.4,C[C@H](Nc1nc(Nc2cnccn2)cc(-c2cccc(C(N)=O)c2)n1)c1ccc(F)cc1 [Example 91]
460,9.8,"C[C@H](Nc1nc(Nc2cnccn2)cc(-c2ccc3c(c2)OCO3)n1)c1ccc(F)cc1 [Example 92, (S)-6-(Benzo[d]1,3-dioxol-5-yl)-N^2-[1-(4-fluorophenyl)ethyl]-N^4-(pyrazin-2-yl)pyrimidine-2,4-diamine hydrochloride]"
220,3,"C[C@H](Nc1nc(Nc2cnccn2)cc(-c2ccnc(F)c2)n1)c1ccc(F)cc1 [Example 93, (S)—N^2-[1-(4-Fluorophenyl)ethyl]-6-(2-fluoropyridin-4-yl)-N^4-(pyrazin-2-yl)pyrimidine-2,4-diamine]"
77,1.7,"C[C@H](Nc1nc(Nc2cnccn2)cc(OCC2CCCO2)n1)c1ccc(F)cc1 (stereo partly drawn) [Example 94, N^2-[(S)-1-(4-Fluorophenyl)ethyl]-N^4-(pyrazin-2-yl)-6-[(tetra hydrofuran-2-yl)methoxy]pyrimidine-2,4-diamine]"
110,2.2,"C[C@H](Nc1nc(Nc2cnccn2)cc(OCCO)n1)c1ccc(F)cc1 [Example 95, (S)-2-{2-[1-(4-Fluorophenyl)ethylamino]-6-(pyrazin-2-ylamino)pyrimidin-4-yloxy}ethanol hydrochloride]"
33,1.4,"C[C@H](Nc1nc(NCCN2CCCC2)cc(Nc2cnccn2)n1)c1ccc(F)cc1 [Example 96, (S)—N^2-[1-(4-Fluorophenyl)ethyl]-N^4-(pyrazin-2-yl)-N^6-[2-(pyrrolidin-1-yl)ethyl]pyrimidine-2,4,6-triamine]"
200,2.4,"CC(C)[C@@H](CO)Nc1cc(Nc2cnccn2)nc(N[C@@H](C)c2ccc(F)cc2)n1 [Example 99, (S)-2-{2-[(S)-1-(4-Fluorophenyl)ethylamino]-6-(pyrazin-2-ylamino)pyrimidin-4-ylamino}-3-methylbutan-1-ol hydrochloride]"
